Results published in patent US11576979B2, “Pyrrolobenzodiazepine prodrugs and antibody conjugates thereof” (GENENTECH, INC., priority 2016, dated 2023).

Tests used:
DT Diaphorase = biological target: T1, DT Diaphorase (Homo sapiens, UniProt P15559); experiment: in vitro DT diaphorase activated drug release assay (NADPH depletion); assay type: biochemical; conditions: 90 min
T1 construct: purchased Sigma D1315
Experimental: An in vitro DT diaphorase activated drug release assay was used to measure NADPH depletion. DT diaphorase activated release of Norfloxacin and Payload (PBD) was measured by the in vitro depletion of NADPH. The assay method was modified from the absorbance measurement of NADPH at A340 (Osman et. al, Chemico-Biological Interactions 147 (2004) 99-108) due to the interference of compounds. The depletion of NADPH was measured by monitoring the decrease of fluorescence intensity of NADPH at 480 nm after being excited at […]. […] Prior to assay, dilute the stock to 1 mM as the 5× working solution; (5) DT Diaphorase specific Inhibitor: prepare 40 mM stock of Dicumarol (Sigma, Cat #M1390-5G, MW=336.29) in 0.13 N NaOH, stored at 4° C. Dilute the stock to 250 uM as the 5× working solution; (6) Compounds: dilute the Norfloxacin and PBD conjugated compounds in assay buffer to 250 uM as the 5× working solution; and (7) 384 well black plate with clear bottom. For the assay procedure: (1) The reaction mix containing 0.5 uM DT-D, 50 uM compound, […] NADPH was set up in a 384 well plate at 50 ul/well. For the control with DT Diaphorase inhibitor, Dicumarol was added in the reaction mix at final 50 uM for each compound. Reaction mix containing NADPH and compound only was also added as the baseline controls. The DT Diaphorase was added in the last step; and (2) The reaction mixes were incubated at room temperature for 5, 30, 90 min. The fluorescence intensity (RFU) of DNAPH was recorded on M1000 plate reader (Tecan) with excitation at 340 nm and emission at 480 nm. For data analysis, data was analyzed and plotted using Prism GraphPad 6. The depletion of NADPH was calculated by the formula below at reaction time point at 90 min wherein: % NADPH depletion=[…].

[1] = GSH adduct formation and stability of quinones; assay type: physicochemical; conditions: 15 mM GSH; for % Rem. (percent remaining after 3 hours): 25 uM, pH 7.0, 37 C; for GSH Adduct / Degr (degradation): 3 hours
Experimental: For degradation analysis, the compounds were incubated at 25 μM with 15 mM GSH in 200 mM Tris buffer pH 7.0 containing 5% methanol at 37° C. for 3 hours. The control incubations were conducted without GSH. The samples were analyzed by LC/MS on Sciex TripleTOF 5600 on a Hypersil Gold C18 column (100×2.1, 1.9 μM, Thermo Scientific). The column was eluted by a gradient of buffer A (0.1% formic acid in 10 mM ammonium acetate) to buffer B (0.1% formic acid in 10 mM ammonium acetate in 90% acetonitrile), 5% B 0-0.5 min, 5-25% B 0.5-8 min, 25-75% B 8-13 min, and 75-95% B 13-13.5 min, 95% B 13.5-14.5 min, 95-5% B 14.5-15 min at 0.4 mL/min. All products were separated and characterized by LC/MS/MS in a positive ESI ion mode. Full scan accurate mass peak areas were used to estimate relative abundance of each component.

KPL-4 = experiment: CELLTITER GLO cell proliferation assay (Example 6); assay type: cell-based; conditions: KPL4, read-out: IC50 potency KPL-4, Table 4; data in parenthesis = repeat evaluations
Experimental: (§1) The toxicity of PBD monomer disulfide prodrugs and diaphorase prodrugs were evaluated against KPL-4, WSU-DLCL2, HCT-116, HCC1395 and Jurkat cell cultures. […] KPL-4 cells further have a high expression of DTD on the order of about 839 nRPKM (where nRPKM refers to normalized reads per Kb of transcript length per million mapped read).
(§2) Potency of the disulfide and DT-diaphorase prodrugs was measured by a cell proliferation assay employing the following protocol (CELLTITER GLO™ Luminescent Cell Viability Assay, Promega Corp.). First, an aliquot of 40 ul of cell culture containing about 8000 cells of WSU-DLCL2 cells (low NQO1 gene and GSH level), 4000 cells of KPL-4 (high NQO1 gene and GSH level), HCT-116 cells, HCC1395 cells or Jurkat cells in RPMI-1640 culture medium (supplemented with 10% fetal bovine serum, 2 mM glutamine, 50 uM cystine, and 0.015 g/L L-methionine) was deposited in each well of a 384-well flat clear bottom white polystyrene tissue culture-treated microplates (Corning, N.Y.). Second, control wells were prepared containing medium with and without cells. Third, compounds with and without disulfide or DT-diaphorase prodrugs (n=3) were added to the experimental wells using ECHO acoustic liquid handling technology (Labcyte Inc, Sunnyvale, Calif.) to create a 10-point dose-response curve in triplicate with 1:3× serial dilution. Fourth, cells were cultured in a humidified incubator set at 37° C. and maintaining an atmosphere of 5% CO2. Fifth, the plates were equilibrated to room temperature for approximately 30 minutes. Sixth, a volume of CELLTITER GLO™ Reagent equal to the volume of cell culture medium present in each well was added. Seventh, the contents were mixed for 10 minutes on an orbital shaker in the dark to induce cell lysis. Eighth, the plate was incubated at room temperature for 30 minutes to stabilize the luminescence signal. Ninth, luminescence was recorded and reported in graphs as % activity where RLU (relative luminescence units) was normalized to controls (no compound control minus no cell control). Tenth, data was plotted as individual points for each replicate (n=3) for each antibody as the mean of luminescence for each set of replicates, with standard deviation error bars.

WSU-DLCL2 = experiment: CELLTITER GLO cell proliferation assay (Example 6); assay type: cell-based; conditions: Homo sapiens, WSUDLCL2, read-out: IC50 potency WSU-DLCL2, Table 4; data in parenthesis = repeat evaluations
Experimental: as §1, §2

[2] = Disulfide cleavage by cysteine, LC/MS; assay type: physicochemical; conditions: 15 uM compound, 0.2 mM cysteine, pH 7.0, 37 C
Experimental: (§3) For disulfide cleavage determination, the compounds were incubated at 15 μM with 0.2 mM cysteine or 4 mM GSH in 100 mM Tris buffer pH 7.0 containing 5% methanol at 37° C. Aliquots were taken at specified time points and the samples were analyzed by LC/MS on Sciex TripleTOF 5600 on a Hypersil Gold C18 column (100×2.1, 1.9 Thermo Scientific). The column was eluted by a gradient of buffer A (0.1% formic acid in 10 mM ammonium acetate) to buffer B (0.1% formic acid in 10 mM ammonium acetate in 90% acetonitrile), 5% B 0-0.5 min, 5-25% B 0.5-8 min, 25-75% B 8-13 min, and 75-95% B 13-13.5 min, 95% B 13.5-14.5 min, 95-5% B 14.5-15 min at 0.4 mL/min. All products were separated and characterized by LC/MS/MS in a positive ESI ion mode. All analytes had the protonated molecular MH+ as the major species with little source fragmentation. Full scan accurate mass peak areas were used to estimate relative abundance of each component.

[3] = Disulfide cleavage by glutathione (GSH), LC/MS; assay type: physicochemical; conditions: 15 uM compound, 4 mM GSH, pH 7.0, 37 C
Experimental: as §3

UACC-257 = experiment: CellTiter-Glo toxicity, 4 days (Example 9); assay type: cell-based; conditions: Homo sapiens, UACC-257, 96 h, 4 days of drug incubation; Table 7A
Experimental: (§4) The toxicity of various PBD monomer disulfide prodrugs and PBD dimer disulfide prodrugs was evaluated on UACC-257, Igrov-1 and A2058 cell lines. Cells were seeded in 384-well plate and treated with drug 24 hours later. After 4 days of drug incubation, the cell viability was determined using Promega CellTiter-Glo luminescent reagent, which measures ATP level (an indirect measure of cell number). The luminescent intensity was measured on PerkinElmer Envision reader. The relative cell viability was calculated by normalizing to non-drug treatment control and was graphed using KleidaGraph software package. IC50 value was determined as the concentration to obtain 50% of the maximum cell killing.

Igrov-1 = experiment: CellTiter-Glo toxicity, 4 days (Example 9); assay type: cell-based; conditions: Homo sapiens, IGROV-1, 96 h, 4 days of drug incubation; Table 7A
Experimental: as §4

A2058 = experiment: CellTiter-Glo toxicity, 4 days (Example 9); assay type: cell-based; conditions: Homo sapiens, A2058, 96 h, 4 days of drug incubation; Table 7A
Experimental: as §4

T1 sequence (P15559 whole entry): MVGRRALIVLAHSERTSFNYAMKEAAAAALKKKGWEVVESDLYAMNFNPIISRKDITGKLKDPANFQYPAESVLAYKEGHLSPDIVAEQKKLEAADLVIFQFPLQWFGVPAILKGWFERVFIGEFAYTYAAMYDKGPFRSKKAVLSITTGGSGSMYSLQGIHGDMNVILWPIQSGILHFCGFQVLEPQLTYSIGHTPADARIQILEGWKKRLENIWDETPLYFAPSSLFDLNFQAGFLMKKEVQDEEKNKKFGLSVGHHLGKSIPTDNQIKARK

Row | Structure (SMILES) | NADPH Dep. (NADPH depletion at 90 minutes) (DT Diaphorase) | % Rem. (percent remaining after 3 hours) [1] [%] | Degr (degradation) [1] | other results
1 | COC1=CC(=O)c2c(c(CO)cn2C)C1=O | 95.99% | 90 | – | GSH Adduct [1]: yes
2 | COC1=CC(=O)c2c(c(CO)c(C)n2C)C1=O | 74.83% | 87 | – | GSH Adduct [1]: yes
3 | COC1=C(C)C(=O)c2c(c(C)c(CO)n2C)C1=O | None | 92.5 | – | GSH Adduct [1]: yes
4 | CCn1cc(C(=O)O)c(=O)c2cc(F)c(N3CCN(C(=O)OCc4ccc(NC(=O)OCc5cc6c(n5C)C(=O)C=C(OC)C6=O)cc4)CC3)cc21 | 94/0 | 63 | yes | –
5 | CCn1cc(C(=O)O)c(=O)c2cc(F)c(N3CCN(C(=O)OCc4c(C(=O)OC)c5c(n4C)C(=O)C=C(OC)C5=O)CC3)cc21 | 17.4% | 100 | – | –
6 | COC1=CC(=O)c2c(c(C=O)c(CO)n2C)C1=O [2-(hydroxymethyl)-5-methoxy-1-methyl-4,7-dioxo-4,7-dihydro-1H-indole-3-carbaldehyde] | 96.92% | 0 | yes | –
7 | C=C1C[C@H]2C(O)N(C(=O)OCc3ccc(NC(=O)OCc4cc5c(n4C)C(=O)C=C(OC)C5=O)cc3)c3cc(OC)c(OC)cc3C(=O)N2C1 (stereo partly shown) [PBD monomer diaphorase prodrug 3] | >90% at | – | – | IC50 (KPL-4): 351 nM; IC50 (WSU-DLCL2): 443 nM
8 | C=C1C[C@H]2C(O)N(C(=O)OCC3(SSCC)CCCC3)c3cc(OC)c(OC)cc3C(=O)N2C1 (stereo partly shown) [PBD monomer disulfide prodrug 5] | – | – | – | % Remaining at 24 h by Cys [2]: 90.9%; % Remaining at 24 h by GSH [3]: 65.9%; IC50 (KPL-4): 1060 nM; IC50 (WSU-DLCL2): 1350 nM; IC50 (UACC-257): 892 nM; IC50 (Igrov-1): 765 nM; IC50 (A2058): 395 nM
9 | C=C1C[C@H]2C(O)N(C(=O)OCc3ccc(SSC(C)(C)C)cc3)c3cc(OC)c(OC)cc3C(=O)N2C1 (stereo partly shown) [PBD monomer disulfide prodrug 6] | – | – | – | % Remaining at 24 h by Cys [2]: 85.4%; % Remaining at 24 h by GSH [3]: 2.1%; IC50 (KPL-4): 806 nM; IC50 (WSU-DLCL2): 2810 nM; IC50 (UACC-257): 497 nM; IC50 (Igrov-1): 3260 nM; IC50 (A2058): 567 nM
10 | COC(=O)c1c2c(n(C)c1CO)C(=O)C=C(OC)C2=O [methyl 2-(hydroxymethyl)-5-methoxy-1-methyl-4,7-dioxo-4,7-dihydro-1H-indole-3-carboxylate] | None | 100 | – | –

More lines, main results first:

Row | NADPH Dep. (NADPH depletion at 90 minutes) (DT Diaphorase) | % Rem. (percent remaining after 3 hours) [1] [%] | Degr (degradation) [1] | Structure (SMILES) | other results
11 | 53.23% | 37.6 | yes | CCn1cc(C(=O)O)c(=O)c2cc(F)c(N3CCN(C(=O)OCc4cc5c(n4C)C(=O)C=C(OC)C5=O)CC3)cc21 | –
12 | 91.5% | 82.1 | yes | CCn1cc(C(=O)O)c(=O)c2cc(F)c(N3CCN(C(=O)OCc4c(C=O)c5c(n4C)C(=O)C=C(OC)C5=O)CC3)cc21 | –
13 | 85.2% | – | – | CCn1cc(C(=O)O)c(=O)c2cc(F)c(N3CCN(C(=O)OCc4cn(C)c5c4C(=O)C(OC)=CC5=O)CC3)cc21 | –
14 | 2.01% | 50 | yes | CCn1cc(C(=O)O)c(=O)c2cc(F)c(N3CCN(C(=O)OCc4c5c(n(C)c4C)C(=O)C=C(OC)C5=O)CC3)cc21 | –
15 | 26.1% | 55.5 | yes | CCn1cc(C(=O)O)c(=O)c2cc(F)c(N3CCN(C(=O)OCc4c(C)c5c(n4C)C(=O)C=C(OC)C5=O)CC3)cc21 | –
